Results on 21 compounds are retold here after patent publication US20110105543A1, “NOVEL TRIARYL DERIVATIVES USEFUL AS MODULATORS OF NICOTINIC ACETYLCHOLINE RECEPTORS” (NeuroSearch A/S, priority 2008, published 2011).

The structures appear in SMILES notation.

The target in series [1] is T1, nAChR α7 receptors (Homo sapiens, UniProt P36544).
T1 construct: expressed in transfected cells; host or cells: Xenopus laevis oocytes
The experiment in a line: Positive modulation of acetylcholine-induced currents at wild-type nAChR α7 receptors expressed in Xenopus laevis oocytes (two-electrode voltage clamp). Particulars: for effect on acetylcholine-induced current amplitude: compound 0.01-31.6 μM applied 30 s before and during 100 μM acetylcholine; for maximal modulation of the acetylcholine response (Imax) / EC50: nAChR α7 in Xenopus oocytes, 100 μM acetylcholine; for maximal modulation of the acetylcholine response (Imax): (test-control)/control*100%; for EC50: clamped at -60 mV, compound 0.01-31.6 μM, read-out: calculated EC50 value for positive modulation of 100 μM acetylcholine responses. Format: cell-based. How it is done: In this example the positive modulation of wild-type nAChR α7 receptors by Compound 2 (i.e. 4-[5-Amino-6-(2,4-dichloro-phenyl)-pyrimidin-4-yl]-phenol; FIGS. 1A and 1B) and by Compound 6 (i.e. 2′-Amino-5′,2″-difluoro-4″-trifluoromethyl-[1,1′;3′,1″]terphenyl-4-ol; FIGS. 2A and 2B) was determined using nAChR α7 receptors heterologously expressed in Xenopus laevis oocytes.
The electrical current through the nAChR α7 channel was measured using conventional two-electrode voltage clamp and nAChR α7 currents were activated by applying pulses of agonist-containing solution onto the nAChR α7 expressing oocyte.
In brief, the oocytes were placed in a recording chambers and continuously superfused with an Oocyte Ringer (OR) solution containing 90 mM NaCl, 2.5 mM KCl, 2.5 mM CaCl2, 1 mM MgCl2 and 5 mM HEPES (pH adjusted to 7.4). The oocytes were clamped at −60 mV and currents were induced by applying 20 s pulses of 100 μM acetylcholine dissolved in OR. The intervals between the acetylcholine applications were 5 minutes, during which the oocytes were washed with OR. The first three applications were control applications to insure a constant response level of 100 μM acetylcholine.
The positive modulation in the presence of Compound 2 or Compound 6 was calculated as (test-control)/control*100% and the concentration response curve for this positive modulation was fitted to the sigmoidal logistic equation: I=Imax/(1+(EC50/[compound])^n), where Imax represents the maximal modulation of the control response, EC50 is the concentration causing a half maximal response, and n is the slope coefficient.

T1 sequence (P36544 23-502): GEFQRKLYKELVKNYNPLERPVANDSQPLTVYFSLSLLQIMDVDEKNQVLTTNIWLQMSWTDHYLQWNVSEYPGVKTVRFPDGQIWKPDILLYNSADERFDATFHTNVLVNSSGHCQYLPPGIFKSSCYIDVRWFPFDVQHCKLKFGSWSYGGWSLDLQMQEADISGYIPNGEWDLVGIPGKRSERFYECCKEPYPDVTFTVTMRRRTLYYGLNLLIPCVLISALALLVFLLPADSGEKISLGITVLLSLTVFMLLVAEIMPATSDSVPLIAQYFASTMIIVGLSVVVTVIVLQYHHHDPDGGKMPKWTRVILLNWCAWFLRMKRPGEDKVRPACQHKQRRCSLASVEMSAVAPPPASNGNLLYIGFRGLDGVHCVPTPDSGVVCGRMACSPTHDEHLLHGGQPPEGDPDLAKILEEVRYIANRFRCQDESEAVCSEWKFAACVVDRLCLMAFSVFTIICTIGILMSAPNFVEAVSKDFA

What is called melting point is the temperature, or range, at which the solid turns liquid. For the compound `COc1ccc(-c2ncnc(-c3ccc(C(F)(F)F)cc3F)c2N)c(OC)c1` [Compound 7, 4-(2,4-Dimethoxy-phenyl)-6-(2-fluoro-4-trifluoromethyl-phenyl)-pyrimidin-5-ylamine], the melting point fell in the range of 191.5 to 192.8 °C. Still for that read-out and setting: next, `COc1ccc(-c2ncnc(-c3ccc(C(F)(F)F)cc3F)c2N)c(O)c1` [Compound 9, 2-[5-Amino-6-(2-fluoro-4-trifluoromethyl-phenyl)-pyrimidin-4-yl]-5-methoxy-phenol]: 150 to 151.5 °C.

Compound `Nc1c(-c2ccc(O)cc2)cnnc1-c1ccc(C(F)(F)F)cc1F` [Compound 20, 4-[5-Amino-6-(2-fluoro-4-trifluoromethyl-phenyl)-pyridazin-4-yl]-phenol] yielded a melting point of 251 to 252.2 °C. What is called EC50 is the midpoint of the concentration-response curve. `Nc1c(-c2ccc(O)cc2)cc(F)cc1-c1ccc(C(F)(F)F)cc1F` [Compound 6, 2′-Amino-5′,2″-difluoro-4″-trifluoromethyl-[1,1′;3′,1″]terphenyl-4-ol] registered a melting point of 97.8 to 98.9 °C. Also, in series [1], the “effect on acetylcholine-induced current amplitude” value is reported as “robust increase”, the “maximal modulation of the acetylcholine response (Imax)” value is listed as 361% and the EC50 was 1400 nM.

`COc1ccc(-c2nc(C)nc(-c3ccc(C(F)(F)F)cc3F)c2N)cc1Cl` [Compound 12, 4-(3-Chloro-4-methoxy-phenyl)-6-(2-fluoro-4-trifluoromethyl-phenyl)-2-methyl-pyrimidin-5-ylamine]: the melting point was in the range of 104.5 to 105.2 °C. The same measure, in the same setting: next, `COc1ccc(-c2cncc(-c3ccc(C(F)(F)F)cc3F)c2N)cc1` [Compound 21, 3-(2-Fluoro-4-trifluoromethyl-phenyl)-5-(4-methoxy-phenyl)-pyridin-4-ylamine]: 169.5 to 170.3 °C. Same read-out and setting: as for `Cc1nc(-c2ccc3c(c2)OCO3)c(N)c(-c2ccc(C(F)(F)F)cc2F)n1` [Compound 14, 4-Benzo[1,3]-dioxol-5-yl-6-(2-fluoro-4-trifluoromethyl-phenyl)-2-methyl-pyrimidin-5-ylamine], the figure is 162.5 to 163.3 °C; as for `COc1ccc(-c2nc(C)nc(-c3ccc(C(F)(F)F)cc3F)c2N)cc1` [Compound 15, 4-(2-Fluoro-4-trifluoromethyl-phenyl)-6-(4-methoxy-phenyl)-2-methyl-pyrimidin-5-ylamine], 129.2 to 130.6 °C.

For `COc1ccc(-c2cc(F)cc(-c3ccc(C(F)(F)F)cc3F)c2N)cc1` [Compound 5, 5′,2″-Difluoro-4-methoxy-4″-trifluoromethyl-[1,1′;3′,1″]terphenyl-2′-ylamine], the melting point lay within 85.2 to 86.3 °C. Same read-out and setting: next, `COc1ccc(-c2ncnc(-c3ccc(Cl)cc3Cl)c2N)cc1` [Compound 1, 4-(2,4-Dichloro-phenyl)-6-(4-methoxy-phenyl)-pyrimidin-5-ylamine]: 141.3 to 142.1 °C; `COc1ccc(-c2cnnc(-c3ccc(C(F)(F)F)cc3F)c2N)cc1` [Compound 19, 3-(2-Fluoro-4-trifluoromethyl-phenyl)-5-(4-methoxy-phenyl)-pyridazin-4-ylamine]: 215.3 to 216.2 °C. `Nc1c(-c2ccc(O)cc2)cncc1-c1ccc(C(F)(F)F)cc1F` [Compound 22, 4-[4-Amino-5-(2-fluoro-4-trifluoromethyl-phenyl)-pyridin-3-yl]-phenol] returned a melting point of 133.6 to 134.8 °C. `Nc1c(-c2ccc(S(N)(=O)=O)cc2)ncnc1-c1ccc(C(F)(F)F)cc1F` [Compound 11, 4-[5-Amino-6-(2-fluoro-4-trifluoromethyl-phenyl)-pyrimidin-4-yl]-benzenesulfonamide] had a melting point of 174.8 to 176.1 °C. The compound `Nc1c(-c2ccc3[nH]ccc3c2)ncnc1-c1ccc(C(F)(F)F)cc1F` [Compound 10, 4-(2-Fluoro-4-trifluoromethyl-phenyl)-6-(1H-indol-5-yl)-pyrimidin-5-ylamine] registered a melting point of 216.1 to 217.8 °C. Consider `Nc1c(-c2ccc(S(N)(=O)=O)cc2)cc(F)cc1-c1ccc(C(F)(F)F)cc1F` [Compound 25, 2′-Amino-5′,2″-difluoro-4″-trifluoromethyl-[1,1′;3′,1″]terphenyl-4-sulfonic acid amide], for which the melting point lay in the range of 189.4 to 191.2 °C. Consider `COc1ccc(-c2nc(N)nc(-c3ccc(C(F)(F)F)cc3F)c2N)cc1` [Compound 17, 4-(2-Fluoro-4-trifluoromethyl-phenyl)-6-(4-methoxy-phenyl)-pyrimidine-2,5-diamine], for which the melting point lay within 125.8 to 127.1 °C. For the compound `Nc1nc(-c2ccc(O)cc2)c(N)c(-c2ccc(C(F)(F)F)cc2F)n1` [Compound 18, 4-[2,5-Diamino-6-(2-fluoro-4-trifluoromethyl-phenyl)-pyrimidin-4-yl]-phenol], the melting point was in the range of 226.3 to 227.5 °C. Turning to `Cc1nc(-c2ccc(O)cc2)c(N)c(-c2ccc(C(F)(F)F)cc2F)n1` [Compound 16, 4-[5-Amino-6-(2-fluoro-4-trifluoromethyl-phenyl)-2-methyl-pyrimidin-4-yl]-phenol], the melting point is 175.4 to 176.9 °C. Turning to `COc1ccc(-c2nc(C)nc(-c3ccc(C(F)(F)F)cc3F)c2[N+](=O)[O-])cc1` [Compound 13, 4-(2-Fluoro-4-trifluoromethyl-phenyl)-6-(4-methoxy-phenyl)-2-methyl-5-nitro-pyrimidine], the melting point fell in the range of 100.8 to 101.8 °C. Still for that read-out and setting: as for `Nc1c(-c2ccc3[nH]ccc3c2)cncc1-c1ccc(C(F)(F)F)cc1F` [Compound 23, 3-(2-Fluoro-4-trifluoromethyl-phenyl)-5-(1H-indol-5-yl)-pyridin-4-ylamine], the figure is 103 to 106 °C. The compound `Nc1c(-c2ccc(O)cc2)ncnc1-c1ccc(Cl)cc1Cl` [Compound 2, 4-[5-Amino-6-(2,4-dichloro-phenyl)-pyrimidin-4-yl]-phenol] showed a melting point of 97.3 to 98.2 °C. Also, in series [1], the “effect on acetylcholine-induced current amplitude” value is “robust increase”, the “maximal modulation of the acetylcholine response (Imax)” value is 299% and the EC50 was 1200 nM.
